According to US10202360B2 (CELGENE QUANTICEL RESEARCH, INC., priority 2016, dated 2019):
pIC50: −log10 of the molar value.

Target: CREBBP (Homo sapiens (Human), UniProt Q92793)
Assay: In vitro enzyme inhibition assay - CREBBP inhibition (AlphaScreen, biotinylated H4-tetraacetyl peptide)
Assay type: binding
Conditions: Table 28; AlphaScreen, H4-tetraacetyl peptide
Description: Determination of the IC50 for the CREBBP inhibitors disclosed herein was performed as follows: CREBBP was cloned and expressed in E. Coli as His-tag protein and purified by Nickel affinity and gel-filtration chromatography. […] CREBBP binding and inhibition was assessed by monitoring the interaction of biotinylated H4-tetraacetyl peptide (AnaSpec, H4K5/8/12/16(Ac), biotin-labeled) with the target using the AlphaScreen technology (Perkin Elmer). In a 384-well ProxiPlate CREBBP (50 nM final) was combined with peptide (20 nM final) in 50 mM HEPES (pH 7.3), 10 mM NaCl, 0.25 mM TCEP, 0.1% (w/v) BSA, and 0.005% (w/v) Brij-35 either in the presence of DMSO (final 0.4% DMSO) or compound dilution series in DMSO. After 20-minute incubation at room temperature, Alpha streptavidin donor beads and Nickel Chelate acceptor beads were added to a final concentration of 5 μg/mL. After two hours of equilibration, plates were read on an Envision instrument and the IC50 was calculated using a four parameter non-linear curve fit.
The ability of the compounds disclosed herein to inhibit CBP activity was quantified and the respective IC50 value was determined.

Sequence of CREBBP (Q92793 1081-1197): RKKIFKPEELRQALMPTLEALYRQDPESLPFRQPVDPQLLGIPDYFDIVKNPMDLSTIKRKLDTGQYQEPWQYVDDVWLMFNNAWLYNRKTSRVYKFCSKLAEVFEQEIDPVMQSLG

Row | pIC50 | Structure (SMILES)
1 | > 6.30 | CCCS(=O)(=O)Nc1cc(-c2ccc(=O)n(C)c2)nc(Oc2c(F)cccc2C2CC2)n1 [Example 239, Propane-1-sulfonic acid [2-(2-cyclopropyl-6-fluoro-phenoxy)-6-(1-methyl-6-oxo-1,6-dihydro-pyridin-3-yl)-pyrimidin-4-yl]-amide]
2 | > 6.30 | Cc1cccc(F)c1Oc1nc(NS(=O)(=O)CCC(C)C)cc(-c2ccc(=O)n(C)c2)n1 [Example 248, 3-Methyl-butane-1-sulfonic acid [2-(2-fluoro-6-methyl-phenoxy)-6-(1-methyl-6-oxo-1,6-dihydro-pyridin-3-yl)-pyrimidin-4-yl]-amide]
3 | > 6.30 | Cn1cc(-c2cc3nc(n2)Oc2cc(ccc2Cl)OCC=CCCCS(=O)(=O)N3)ccc1=O [Example 361, 5-(36-chloro-11,11-dioxido-2,4-dioxa-11-thia-12-aza-1(2,4)-pyrimidina-3(1,3)-benzenacyclododecaphan-6-en-1^6-yl)-1-methylpyridin-2(1H)-one]
4 | > 6.30 | COc1nc(NCc2ccccn2)cc(-c2ccc(=O)n(C)c2)n1 [Example 328, 5-{2-Methoxy-6-[(pyridin-2-ylmethyl)-amino]-pyrimidin-4-yl}-1-methyl-1H-pyridin-2-one]
5 | > 6.30 | CCNc1cc(-c2ccc(=O)n(C)c2)nc(Oc2c(C)cccc2F)n1 [Example 291, 5-[6-Ethylamino-2-(2-fluoro-6-methyl-phenoxy)-pyrimidin-4-yl]-1-methyl-1H-pyridin-2-one]
6 | > 6.30 | Cc1cccc(Cl)c1Oc1nc(NC(C)c2ccccc2)cc(-c2ccc(=O)n(C)c2)n1 (stereo not shown) [Example 282, 5-(2-(2-chloro-6-methylphenoxy)-6-((1-phenylethyl)amino)pyrimidin-4-yl)-1-methylpyridin-2(1H)-one]
7 | > 6.30 | Cn1cc(-c2cc(NS(=O)(=O)CC3CC3)nc(Oc3c(F)cccc3Cl)n2)ccc1=O [Example 263, N-[2-(2-Chloro-6-fluoro-phenoxy)-6-(1-methyl-6-oxo-1,6-dihydro-pyridin-3-yl)-pyrimidin-4-yl]-C-cyclopropyl-methanesulfonamide]
8 | 5.30 to 6.30 | CCCCNc1cc(-c2ccc(=O)n(C)c2)nc(OC)n1 [Example 325, 5-(6-Butylamino-2-methoxy-pyrimidin-4-yl)-1-methyl-1H-pyridin-2-one]
9 | > 6.30 | CC(C)S(=O)(=O)Nc1cc(-c2ccc(=O)n(C)c2)nc(OC2CCCCC2)n1 [Example 247, Propane-2-sulfonic acid [2-cylcohexyloxy-6-(1-methyl-6-oxo-1,6-dihydro-pyridin-3-yl)-pyrimidin-4-yl]-amide]
10 | > 6.30 | Cc1cccc(Cl)c1Oc1nc(NS(=O)(=O)CC2CC2)cc(-c2ccc(=O)n(C)c2)n1 [Example 264, N-[2-(2-Chloro-6-methyl-phenoxy)-6-(1-methyl-6-moxo-1,6-dihydro-pyridin-3-yl)-pyrimidin-4-yl]-C-cyclopropyl-methanesulfonamide]
11 | > 6.30 | CCCCS(=O)(=O)Nc1cc(-c2ccc(=O)n(C)c2)nc(Oc2c(F)cccc2F)n1 [Example 342, N-(2-(2,6-difluorophenoxy)-6-(1-methyl-6-oxo-1,6-dihydropyridin-3-yl)pyrimidin-4-yl)butane-1-sulfonamide]
12 | > 6.30 | CCN(CC)c1cc(-c2ccc(=O)n(C)c2)nc(Oc2ccc(F)cc2F)n1 [Example 277, 5-(6-(diethylamino)-2-(2,4-difluorophenoxy)pyrimidin-4-yl)-1-methylpyridin-2(1H)-one]
13 | > 6.30 | Cc1cccc(Cl)c1Oc1nc(N)cc(-c2cc(C)c(=O)n(C)c2)n1 [Example 334, 5-[6-Amino-2-(2-chloro-6-methyl-phenoxy)-pyrimidin-4-yl]-1,3-dimethyl-1H-pyridin-2-one]
14 | > 6.30 | Cc1cccc(C)c1CNc1cc(-c2ccc(=O)n(C)c2)nc(Oc2c(C)cccc2F)n1 [Example 300, 5-[6-(2,6-Dimethyl-benzylamino)-2-(2-fluoro-6-methyl-phenoxy)-pyrimidin-4-yl]-1-methyl-1H-pyridin-2-one]
15 | > 6.30 | Cc1cccc(F)c1Oc1nc(NC2CCCc3ccccc32)cc(-c2ccc(=O)n(C)c2)n1 (stereo not shown) [Example 280, 5-(2-(2-fluoro-6-methylphenoxy)-6-((1,2,3,4-tetrahydronaphthalen-1-yl)amino)pyrimidin-4-yl)-1-methylpyridin-2(1H)-one]
16 | > 6.30 | Cc1ccc(F)c(Oc2nc(NS(=O)(=O)C(C)C)cc(-c3ccc(=O)n(C)c3)n2)c1F [Example 260, Propane-2-sulfonic acid [2-(2,6-difluoro-3-methyl-phenoxy)-6-(1-methyl-6-oxo-1,6-dihydro-pyridin-3-yl)-pyrimidin-4-yl]-amide]
17 | > 6.30 | Cc1cccc(F)c1Oc1nc(N)cc(-c2ccc(=O)n(C)c2)n1 [Example 332, 5-[6-Amino-2-(2-fluoro-6-methyl-phenoxy)-pyrimidin-4-yl]-1-methyl-1H-pyridin-2-one]

The remaining lines, values behind:

Row | Structure (SMILES) | pIC50
18 | COc1cccc(C)c1Oc1nc(NS(=O)(=O)C(C)C)cc(-c2cc(C)c(=O)n(C)c2)n1 [Example 8, Propane-2-sulfonic acid [6-(1,5-dimethyl-6-oxo-1,6-dihydro-pyridin-3-yl)-2-(2-methoxy-6-methyl-phenoxy)-pyrimidin-4-yl]-amide] | > 6.30
19 | CCC(C)S(=O)(=O)Nc1cc(-c2cc(C)c(=O)n(C)c2)nc(Oc2c(C)cccc2C)n1 (stereo not shown) [Example 84, N-(6-(1,5-dimethyl-6-oxo-1,6-dihydropyridin-3-yl)-2-(2,6-dimethylphenoxy)pyrimidin-4-yl)butane-2-sulfonamide] | > 6.30
20 | Cc1cccc(F)c1Oc1nc(NS(=O)(=O)C2CCCC2)nc(-c2cc(C)c(=O)n(C)c2)n1 [Example 184, Cyclopentanesulfonic acid [4-(1,5-dimethyl-6-oxo-1,6-dihydro-pyridin-3-yl)-6-(2-fluoro-6-methyl-phenoxy)-[1,3,5]triazin-2-yl]-amide] | > 6.30
21 | CCS(=O)(=O)Nc1cc(-c2ccc(=O)n(C)c2)nc(-c2ccccc2C#N)n1 [Example 198, Ethanesulfonic acid [2-(2-cyano-phenyl)-6-(1-methyl-6-oxo-1,6-dihydro-pyridin-3-yl)-pyrimidin-4-yl]-amide] | > 6.30
22 | CCCS(=O)(=O)Nc1nc(Oc2c(C)cccc2C)nc(-c2cc(C)c(=O)n(C)c2)n1 [Example 154, Propane-1-sulfonic acid [4-(1,5-dimethyl-6-oxo-1,6-dihydro-pyridin-3-yl)-6-(2,6-dimethyl-phenoxy)-[1,3,5]triazin-2-yl]-amide] | > 6.30
23 | CCCS(=O)(=O)Nc1cc(-c2cc(C)c(=O)n(C)c2)nc(-c2ccccc2)n1 [Example 156, N-(6-(1,5-dimethyl-6-oxo-1,6-dihydropyridin-3-yl)-2-phenylpyrimidin-4-yl)propane-1-sulfonamide] | 5.30 to 6.30
24 | COC(C)CS(=O)(=O)Nc1cc(-c2cc(C)c(=O)n(C)c2)nc(Oc2c(C)cccc2C)n1 (stereo not shown) [Example 85, N-(6-(1,5-dimethyl-6-oxo-1,6-dihydropyridin-3-yl)-2-(2,6-dimethylphenoxy)pyrimidin-4-yl)-2-methoxypropane-1-sulfonamide] | > 6.30
25 | CCCS(=O)(=O)Nc1nc(Oc2c(C)cccc2F)nc(-c2cc(C)c(=O)n(C)c2)c1C [Example 161, Propane-1-sulfonic acid [6-(1,5-dimethyl-6-oxo-1,6-dihydro-pyridin-3-yl)-2-(2-fluoro-6-methyl-phenoxy)-5-methyl-pyrimidin-4-yl]-amide] | > 6.30
26 | Cc1cccc(F)c1Oc1nc(NS(=O)(=O)C(C)C)cc(-c2ccc(=O)n(C)c2)n1 [Example 119, Propane-2-sulfonic acid [2-(2-fluoro-6-methyl-phenoxy)-6-(1-methyl-6-oxo-1,6-dihydro-pyridin-3-yl)-pyrimidin-4-yl]-amide] | > 6.30
27 | CC[C@@H](C)S(=O)(=O)Nc1cc(-c2ccc(=O)n(C)c2)nc(Oc2c(C)cccc2F)n1 [Example 203, (R)-N-(2-(2-fluoro-6-methylphenoxy)-6-(1-methyl-6-oxo-1,6-dihydropyridin-3-yl)pyrimidin-4-yl)butane-2-sulfonamide] | > 6.30
28 | Cc1cc(F)cc(Cl)c1Oc1nc(NS(=O)(=O)C(C)C)cc(-c2cc(C)c(=O)n(C)c2)n1 [Example 100, Propane-2-sulfonic acid [2-(2-chloro-4-fluoro-6-methyl-phenoxy)-6-(1,5-dimethyl-6-oxo-1,6-dihydro-pyridin-3-yl)-pyrimidin-4-yl]-amide] | > 6.30
29 | CC[C@H](C)S(=O)(=O)Nc1cc(-c2ccc(=O)n(C)c2)nc(Oc2c(F)ccc(C)c2Cl)n1 [Example 224, (2S)-Butane-2-sulfonic acid [2-(2-chloro-6-fluoro-3-methyl-phenoxy)-6-(1-methyl-6-oxo-1,6-dihydro-pyridin-3-yl)-pyrimidin-4 yl]-amide] | > 6.30
30 | CCCCS(=O)(=O)Nc1cc(-c2cc(C)c(=O)n(C)c2)nc(Oc2c(F)cccc2F)n1 [Example 18, Butane-1-sulfonic acid [2-(2,6-difluoro-phenoxy)-6-(1,5-dimethyl-6-oxo-1,6-dihydro-pyridin-3-yl)-pyrimidin-4-yl]-amide] | > 6.30
31 | CCn1cc(-c2cc(NS(=O)(=O)C(C)C)nc(Oc3ccc(F)cc3F)n2)cc(C)c1=O [Example 44, Propane-2-sulfonic acid [2-(2,4-difluoro-phenoxy)-6-(1-ethyl-5-methyl-6-oxo-1,6-dihydro-pyridin-3-yl)-pyrimidin-4-yl]-amide] | > 6.30
